Columns and labels:
Type in all cases: cell-based
c-Myc protein = target: T1, c-Myc protein (Homo sapiens, UniProt P01106); experiment: c-Myc protein degradation in HL60 cells (Western blot); conditions: for remaining activity at 0.01 µM: HL-60, compound at 10 nM, 24 h, gray value relative to Ctrl (DMSO), read-out: Remaining amount of c-Myc protein (@10 nM/Ctrl)
T1 construct: degradation of myc and GSPT1 proteins in HL60 cells; endogenous in cells; host or cells: HL60
Protocol: (§1) HL60 cells in the exponential growth phase were digested and plated into a 6-well plate at 1×10^6 cells per well. The cell culture medium was RPMI-1640 (meilunbio, MA0215). After a day of adherent growth of the cells, the compound of the present invention was added as a test drug for culture, and proteins were extracted 24 h later (Ctrl meant adding only DMSO at the same volume).
(§2) In the 6-well plate, the culture medium RPMI-1640 (meilunbio, MA0215) was removed, and the cells were washed once with PBS, digested with trypsin, and centrifuged and collected separately into 1.5 mL centrifuge tubes. 100 μL of RIPA lysis buffer (containing 100 μM PMSF) was added to each tube, mixed thoroughly, allowed to stand on ice for 30 min and then centrifuged at 12000 rpm at 4° C. using a centrifuge for 20 min. The supernatant was used for Western blotting experiments. The sample can be stored at −80° C.
(§3) By using the BCA protein concentration determination kit (from Thermo Fisher, Cat. No. 23225), the BSA standard determination solution and the samples to be tested (the samples to be tested can be diluted and then tested) were prepared according to the table A below. Samples were added to the 96-well plate. Each well was supplemented with PBS to 20 μL, and then 200 μL of BCA working solution (prepared according to the kit) was added respectively and mixed evenly. The plate was placed at 60° C. for 10 min, and then the absorbance at 562 nm was detected. After the reading was recorded, a standard curve was plotted using concentration gradients of the standards, and the absorbance of the samples was substituted to calculate the protein concentration of the samples.
(§4) • 2.1 Protein denaturation: RIPA protein buffer (purchased from Solarbio, Cat. No. R0010) and 5× Loading Buffer (SDS, glycerin, bromophenol blue, TRIS) (purchased from Solarbio, Cat. No. P1040) were added, and the protein samples were denatured at 100° C. for 5 min. • 2.2 Sample loading and electrophoresis: 10% precast gel and the corresponding electrophoresis buffer were used. The same mass of protein sample and protein ladder (purchased from thermo, Cat. No. 26617) were loaded into each well, and electrophoresis at 200 V was performed for 30 min. • 2.3 […]: The gel was excised to remove the excess part. Transferring to PVDF membrane was performed by the wet transfer method (before use, it was necessary to activate the PVDF membrane with methanol for 1 min) at 300 mA for 2 h, during which a lot of heat was generated, and thus cooling with an ice box was required. • 2.4 Blocking: After the transferring, the PVDF membrane was placed in 5% skim milk and blocked with shaking at room temperature for 1 h. • 2.5 Incubating with primary antibody: The PVDF membrane was cut according to the molecular weight indicated on the marker and placed in c-myc (purchased from abcam, Cat. No. ab32072), or GSPT1 (purchased from abcam, Cat. No. ab234433), or CK1α (purchased from abcam, Cat. No. ab206652), or IKZF2 (purchased from proteintech, Cat. No. 13554-1-AP), and GAPDH (purchased from CST, Cat. No. #97166) primary antibodies. The antibodies were diluted with TBST buffer (a solution prepared from TRIS, KCL and NaCl and adjusted to pH 7.4 with hydrochloric acid, and Tween 20 was added) at a ratio of 1:1000, and blocked overnight on a shaker at 4° C. • 2.6 Incubating with secondary antibody: The PVDF membrane incubated with the primary antibody was washed with TBST for 3 times, each time for 10 min. After washing, the membrane was placed in the secondary antibody of the corresponding species, and incubated at room temperature in a shaker for 2 h. • 2.7 Washing membrane and exposure: After incubated with the secondary antibodies, the membrane was washed 3 times with TBST on a shaker, 10 minutes each time. […]

IKZF2 protein = target: T2, IKZF2 protein (Homo sapiens, UniProt Q9UKS7); experiment: IKZF2 protein degradation (Western blot); conditions: compound at 10 nM, 24 h, gray value relative to Ctrl (DMSO)
T2 construct: endogenous in cells; host or cells: HL60
Protocol: as §1, §2, §3
(§5) • 2.1 Protein denaturation: RIPA protein buffer (purchased from Solarbio, Cat. No. R0010) and 5× Loading Buffer (SDS, glycerin, bromophenol blue, TRIS) (purchased from Solarbio, Cat. No. P1040) were added, and the protein samples were denatured at 100° C. for 5 min. • 2.2 Sample loading and electrophoresis: 10% precast gel and the corresponding electrophoresis buffer were used. […]

CK1α protein = target: T3, CK1α protein (Homo sapiens, UniProt P48729); experiment: CK1α protein degradation (Western blot); conditions: compound at 10 nM, 24 h, gray value relative to Ctrl (DMSO)
T3 construct: endogenous in cells; host or cells: HL60
Protocol: as §1, §2, §3, §5

HL60 cells = experiment: Anti-proliferation on HL60 cells (CellTiter-Glo, 3 days); conditions: Homo sapiens, HL-60, 72 h, 3 days incubation, CTG luminescence, IC50 by XLfit, read-out: HL60 cells Proliferation inhibitory activity
Summary of the method: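 Log-phase cells were plated at 20000 cells/well and treated with compound dilutions in RPMI-1640 for 3 days, with 0.1% DMSO controls. Proliferation was read by CellTiter-Glo luminescence. IC50 was fitted from the inhibition rates.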

GSPT1 protein = target: T4, GSPT1 protein (Homo sapiens, UniProt P15170); experiment: GSPT1 protein degradation in HL60 cells (Western blot); conditions: for Degradation of GSPT1 protein in HL60 cells (FIG. 1, in words): FIG. 1, concentration not stated; for remaining GSPT1 protein at 0.01 µM: HL-60, compound at 10 nM, 24 h, gray value relative to Ctrl (DMSO), read-out: Remaining amount of GSPT1 protein (@10 nM/Ctrl)
T4 construct: degradation of myc and GSPT1 proteins in HL60 cells; endogenous in cells; host or cells: HL60
Protocol: as §1, §2, §3, §4

T2 sequence (Q9UKS7 whole entry): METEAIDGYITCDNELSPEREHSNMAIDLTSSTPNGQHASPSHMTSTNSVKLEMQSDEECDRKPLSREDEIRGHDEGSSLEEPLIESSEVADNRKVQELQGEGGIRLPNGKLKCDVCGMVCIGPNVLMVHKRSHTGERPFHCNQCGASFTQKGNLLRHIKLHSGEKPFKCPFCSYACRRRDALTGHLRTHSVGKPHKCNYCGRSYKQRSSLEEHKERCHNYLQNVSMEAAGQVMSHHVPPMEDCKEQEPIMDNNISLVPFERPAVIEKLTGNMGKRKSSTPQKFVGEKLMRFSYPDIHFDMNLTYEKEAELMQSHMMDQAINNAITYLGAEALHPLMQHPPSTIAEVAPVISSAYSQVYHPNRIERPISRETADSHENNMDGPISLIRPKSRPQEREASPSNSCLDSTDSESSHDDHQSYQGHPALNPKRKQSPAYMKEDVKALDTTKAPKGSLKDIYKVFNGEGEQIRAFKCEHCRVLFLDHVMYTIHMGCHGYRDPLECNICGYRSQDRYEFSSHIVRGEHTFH
T1 sequence (P01106 whole entry): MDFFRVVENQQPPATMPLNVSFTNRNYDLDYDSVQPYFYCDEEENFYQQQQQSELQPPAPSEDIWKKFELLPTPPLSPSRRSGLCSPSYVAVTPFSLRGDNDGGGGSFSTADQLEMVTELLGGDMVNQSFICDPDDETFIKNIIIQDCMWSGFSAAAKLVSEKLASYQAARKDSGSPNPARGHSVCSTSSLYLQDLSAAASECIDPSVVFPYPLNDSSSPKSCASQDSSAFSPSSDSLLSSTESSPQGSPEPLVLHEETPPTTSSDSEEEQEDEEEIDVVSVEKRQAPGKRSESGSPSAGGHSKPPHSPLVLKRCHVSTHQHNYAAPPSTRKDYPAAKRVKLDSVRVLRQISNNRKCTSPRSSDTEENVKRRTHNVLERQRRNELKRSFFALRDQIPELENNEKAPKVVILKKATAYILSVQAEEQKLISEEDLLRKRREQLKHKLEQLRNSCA
T4 sequence (P15170 whole entry): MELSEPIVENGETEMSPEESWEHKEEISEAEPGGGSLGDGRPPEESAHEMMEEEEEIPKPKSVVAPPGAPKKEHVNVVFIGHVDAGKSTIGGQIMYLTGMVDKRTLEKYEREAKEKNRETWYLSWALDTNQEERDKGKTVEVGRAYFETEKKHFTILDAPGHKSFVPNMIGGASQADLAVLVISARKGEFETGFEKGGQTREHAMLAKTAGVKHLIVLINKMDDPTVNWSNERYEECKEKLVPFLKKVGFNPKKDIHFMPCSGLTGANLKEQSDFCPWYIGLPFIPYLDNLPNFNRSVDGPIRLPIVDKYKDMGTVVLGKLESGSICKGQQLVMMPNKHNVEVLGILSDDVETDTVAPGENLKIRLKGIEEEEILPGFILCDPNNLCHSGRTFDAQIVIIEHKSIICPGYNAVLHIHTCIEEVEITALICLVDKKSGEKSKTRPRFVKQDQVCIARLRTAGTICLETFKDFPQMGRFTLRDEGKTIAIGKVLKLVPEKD
T3 sequence (P48729 whole entry): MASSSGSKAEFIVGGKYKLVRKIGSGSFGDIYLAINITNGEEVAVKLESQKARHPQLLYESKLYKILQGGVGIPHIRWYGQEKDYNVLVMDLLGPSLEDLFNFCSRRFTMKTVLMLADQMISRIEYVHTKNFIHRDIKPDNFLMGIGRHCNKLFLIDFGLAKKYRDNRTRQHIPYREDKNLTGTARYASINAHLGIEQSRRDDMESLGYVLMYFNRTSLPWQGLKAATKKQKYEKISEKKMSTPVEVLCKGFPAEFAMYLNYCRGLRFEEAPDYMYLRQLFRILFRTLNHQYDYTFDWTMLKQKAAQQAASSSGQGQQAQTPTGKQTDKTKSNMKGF

| Structure (SMILES) | Degradation of c-Myc protein in HL60 cells at 10 nM (FIG. 1, in words) (c-Myc protein) | Remaining amount of IKZF2 protein (@10 nM/Ctrl) (IKZF2 protein) | Remaining amount of CK1α protein (@10 nM/Ctrl) (CK1α protein) | remaining activity at 0.01 µM (c-Myc protein) | IC50 (HL60 cells) | Degradation of GSPT1 protein in HL60 cells (FIG. 1, in words) (GSPT1 protein) | remaining GSPT1 protein at 0.01 µM (GSPT1 protein) | Degradation of GSPT1 protein in HL60 cells at 10 nM (FIG. 1, in words) (GSPT1 protein; 10 nM) | Degradation of c-Myc protein in HL60 cells at 300 nM (FIG. 2, FIG. 3, in words) (c-Myc protein) | Degradation of GSPT1 protein in HL60 cells at 100 nM (FIG. 3, in words) (GSPT1 protein) | Degradation of GSPT1 protein in HL60 cells at 300 nM (FIG. 2, FIG. 3, in words) (GSPT1 protein) |
| --- | --- | --- | --- | --- | --- | --- | --- | --- | --- | --- | --- |
| O=C1CCC(N2Cc3cc(CNC(=O)C(F)(F)c4ccc(Cl)cc4)ccc3C2=O)C(=O)N1 (stereo not drawn) [CC-90009, reference compound] | no ability to degrade c-Myc protein | 85% | 78% | – | – | – | – | – | – | – | – |
| O=C1CCC(N2Cc3cc(CNCC4CCN(c5ncc(-c6cccc7ccccc67)cn5)CC4)ccc3C2=O)C(=O)N1 (stereo not drawn) [Compound A62] | – | 45% | 27% | 17% | 2 nM | significantly degrade GSPT1 protein | 16% | – | – | – | – |
| O=C1CCC(N2Cc3cc(CNCC4CCN(c5ncc(-c6cccc(Cl)c6)cc5C(F)(F)F)CC4)ccc3C2=O)C(=O)N1 (stereo not drawn) [Compound A80] | completely degrade both GSPT1 and c-Myc | 17% | 5% | 0% | < 0.2 nM | significantly degrade GSPT1 protein | 3% | completely degrade both GSPT1 and c-Myc | – | – | – |
| O=C1CCC(N2Cc3cc(CCCC4CCN(c5ncc(-c6cccc(Cl)c6)cc5C(F)(F)F)CC4)ccc3C2=O)C(=O)N1 (stereo not drawn) [Compound A134] | – | – | – | – | 223 nM | – | – | – | simultaneously degrade both GSPT1 and c-Myc proteins | significantly degrade GSPT1 protein | simultaneously degrade both GSPT1 and c-Myc proteins |
| O=C1CCC(N2Cc3cc(CNCC4CCN(c5ncc(-c6cccc(Cl)c6)cc5C(F)(F)F)CC4)c(F)cc3C2=O)C(=O)N1 (stereo not drawn) [Compound A140] | – | – | – | 95% | 17.1 nM | – | 47% | – | – | – | – |
| N#Cc1cc(CNCC2CCN(c3ncc(-c4cccc(Cl)c4)cc3C(F)(F)F)CC2)ccc1C(=O)NC1CCC(=O)NC1=O (stereo not drawn) [Compound A162] | – | – | – | – | 231 nM | – | – | – | simultaneously degrade both GSPT1 and c-Myc proteins | significantly degrade GSPT1 protein | simultaneously degrade both GSPT1 and c-Myc proteins |
| O=C1C[C@H](N2Cc3cc(CNCC4CCN(c5ncc(-c6cccc(Cl)c6)cc5C(F)(F)F)CC4)ccc3C2=O)C(=O)N1 [Compound A169] | – | – | – | 105% | 46.3 nM | – | 65% | – | simultaneously degrade both GSPT1 and c-Myc proteins | – | significantly degrade GSPT1 protein |
